Data from patent US20040115126A1, “Compositions and methods for the non-invasive detection of polypeptides in vivo” (The Regents of the University of Michigan, priority 2002, published 2004).

B1: TRAIL: TNF-related apoptosis inducing ligand (protein, UniProt P50591 1-281, looked up)
Tumor necrosis factor ligand …: MAMMEVQGGPSLGQTCVLIVIFTVLLQSLCVAVTYVYFTNELKQMQDKYSKSGIACFLKEDDSYWDPNDEESMNSPCWQVKWQLRQLVRKMILRTSEETISTVQEKQQNISPLVRERGPQRVAAHITGTRGRSNTLSSPNSKNEKALGRKINSWESSRSGHSFLSNLHLRNGELVIHEKGFYYIYSQTYFRFQEEIKENTKNDKQMVQYIYKYTSYPDPILLMKSARNSCWSKDAEYGLYSIYQGGIFELKENDRIFVSVTNEHLIDMDHEASFFGAFLVG

What was measured:
[1] = test system: 9L gliosarcoma cells genetically engineered to stably express firefly luciferase (9LLuc); assay: BCNU chemotherapy of orthotopic 9L-Luc rat brain tumors, log cell kill from serial MRI and BLI; type: in vivo; details: intracerebral 9LLuc tumor, treated 16 days after implantation, mean ±SEM, n=5
Text: Current assessment of orthotopic tumor models in animals utilizes survival as the primary therapeutic endpoint. In vivo bioluminescence imaging ([…]) is a sensitive imaging modality that is rapid and accessible, and comprises an ideal tool for evaluating antineoplastic therapies. Using human tumor cell lines constitutively expressing luciferase, the kinetics of tumor growth and response to therapy have been assessed in intraperitoneal, subcutaneous and intravascular cancer models. […] Therefore, the ability of BLI to noninvasively quantitate the growth and therapeutic-induced cell kill of orthotopic rat brain tumors derived from 9L gliosarcoma cells genetically engineered to stably express firefly luciferase (9L^Luc) was investigated.
Intracerebral tumor burden was monitored over time by quantifying photon emission and tumor volume using a cryogenically-cooled CCD camera and magnetic resonance imaging (MRI), respectively. Excellent correlation (r=0.91) between detected photons and tumor volume was found.
FIGS. 5A-5O show a temporal analysis of the response of a 9L^Luc tumor to BCNU chemotherapy. […] Tumor volume was monitored with T2-weighted MRI (FIGS. 5A-5F) and infra-tumoral luciferase activity was monitored with BLI (FIGS. 5G-5L). […] Quantitative analysis of tumor progression and response to BCNU chemotherapy is shown by the graph FIG. 50. […]

[2] = test system: D-54 cells expressing ER-Luc-ER caspase-3 reporter; assay: Western blot of caspase-3 reporter (ER-Luc-ER) cleavage in D-54 cells; type: cell-based; details: various concentrations for 3 hrs
Protocol: FIG. 7 depicts a western blot showing induction of apoptosis. In D-54 cells, a caspase-3 reporter construct analogous to the one described in FIG. 6 except with ER domains as well as the caspase-3 cleavage sequence (DEVD) were present on the amino and carboxy termini (ER-Luc-ER) was used in the above studies. […] D-54 cells expressing this molecule were treated with TRAIL (TNF-related apoptosis inducing ligand) at various concentrations for 3 hrs.

[3] = test system: D-54 derived stable cell line expressing a caspase-3 reporter molecule; assay: Non-invasive bioluminescence imaging of apoptosis in D-54 caspase-3 reporter tumors in nude mice; type: in vivo; details: 50 ug intratumorally, s.q. D-54 reporter tumors in nude mice, IVIS imaging after luciferin
Text: FIG. 6 depicts one strategy for imaging apoptosis. In this example, an estrogen regulatory domain results in silencing of luciferase due to sequestration. Activation of caspase-3 during apoptosis results in cleavage at the DEVD site, thus, releasing luciferase from the silencing effects of the estrogen regulatory domain. The free luciferase can, in the presence of luciferin, generate bioluminescense which can be imaged in vitro or in vivo using a Xenogen camera system.
FIGS. 8A and 8B depict non-invasive imaging of apoptosis. D-54 derived stable cell line expressing a caspase-3 reporter molecule similar to that described in FIG. 6 was implanted s.q. into nude mice. When the tumors reached a palpatable size they were treated with vector only (PBS, Panel A) or with 50 ug of TRAIL intratumoraly (panel B). Bioluminescent activity within the tumor was then measured after injection of luciferin using a IVIS imaging system.

Molecule	Log cell kill calculated using BLI ([1]; BLI photon emission)	Log cell kill calculated using MRI ([1]; T2-weighted MRI tumor volume)	cleavage of ER-Luc-ER reporter (luciferase specific antibody western blot) [2]	increase in bioluminescence compared to the vector control [3]
O=NN(CCCl)C(=O)NCCCl [BCNU, 1,3-bis(2-chloroethyl)-1 nitrosourea]	1.84±0.73	1.78±0.36	–	–
B1	–	–	cleaved to a 90 kD molecule (ER-Luc) and subsequently to Luc (60 kD)	2-3 ×
